According to patent US20200024278A1, “COMPOSITION COMPRISING ANTIBIOTIC COMPOUND AND AN HETEROCYCLIC COMPOUND AND THEIR USE IN PREVENTING OR TREATING BACTERIAL INFECTIONS” (MUTABILIS, priority 2016, published 2020):
Where two headings read alike, the source gives them in different places.

Assays:
Assay in all cases: MIC, broth microdilution (CLSI), substance alone or ATB combined with compound at 4 or 8 μg/mL
ECL P99 = assay type: cell-based, E. cloacae; conditions: Enterobacter cloacae, ECL P99
How it was run: (§1)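 Potentiation format: antibiotic dilution series run with test compound held at 4 or 8 μg/mL, alongside compound-alone MICs. Broth microdilution per CLSI in ca-MHB, 16-20 h at 35° C.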

KPN UFR68 = assay type: cell-based, K. pneumoniae; conditions: Klebsiella pneumoniae, substance alone
How it was run: as §1

KPN 6299 = assay type: cell-based, K. pneumoniae; conditions: Klebsiella pneumoniae
How it was run: as §1

KPN UFR42 = assay type: cell-based, K. pneumoniae; conditions: Klebsiella pneumoniae, KPN UFR42
How it was run: as §1

KPN BAA-1898 = assay type: cell-based, K. pneumoniae; conditions: Klebsiella pneumoniae, BAA1898, KPN BAA-1898
How it was run: as §1

PAE 105250 = assay type: cell-based, P. aeruginosa; conditions: Pseudomonas aeruginosa, PAE 105250
How it was run: as §1

PAE UFR48 = assay type: cell-based, P. aeruginosa; conditions: Pseudomonas aeruginosa, PAE UFR48
How it was run: as §1

PAE UFR90 = assay type: cell-based, P. aeruginosa; conditions: Pseudomonas aeruginosa, PAE UFR90
How it was run: as §1

ECO UFR39 = assay type: cell-based, E. coli; conditions: Escherichia coli, ECO UFR39
How it was run: as §1

ECO 190317 = assay type: cell-based, E. coli; conditions: Escherichia coli, ECO 190317
How it was run: as §1

SPN 49619 = assay type: cell-based, S. pneumoniae; conditions: Streptococcus pneumoniae, SPN 49619
How it was run: as §1

SAU 29213 = assay type: cell-based, S. aureus; conditions: Staphylococcus aureus
How it was run: as §1

[1] = antibiotic alone, read-out: MIC ATB alone

## CCN1CCN(C(=O)N[C@@H](C(=O)N[C@@H]2C(=O)N3[C@@H]2SC(C)(C)[C@@H]3C(=O)O)c2ccccc2)C(=O)C1=O [PIP, Piperacillin, reference compound]
ECL P99; [1]
  MIC: 512 µg/mL
ECL P99; substance alone, read-out: MIC
  MIC: 512 µg/mL
KPN UFR68
  MIC: > 1020 µg/mL
KPN 6299; [1]
  MIC: > 1020 µg/mL
KPN 6299; substance alone, read-out: MIC
  MIC: > 1020 µg/mL
KPN UFR42; [1]
  MIC: > 256 µg/mL
KPN UFR42; substance alone, read-out: MIC
  MIC: > 256 µg/mL
KPN BAA-1898; [1]
  MIC: > 1020 µg/mL
KPN BAA-1898; substance alone, read-out: MIC
  MIC: > 1020 µg/mL
PAE 105250; [1]
  MIC: 128 µg/mL
PAE 105250; substance alone, read-out: MIC
  MIC: 128 µg/mL
PAE UFR48; [1]
  MIC: 256 µg/mL
PAE UFR48; substance alone, read-out: MIC
  MIC: 256 µg/mL
PAE UFR90; [1]
  MIC: 256 µg/mL
PAE UFR90; substance alone, read-out: MIC
  MIC: 256 µg/mL
ECO UFR39; [1]
  MIC: > 1020 µg/mL
ECO UFR39; substance alone, read-out: MIC
  MIC: > 1020 µg/mL
ECO 190317; [1]
  MIC: > 1020 µg/mL
ECO 190317; substance alone, read-out: MIC
  MIC: > 1020 µg/mL
SPN 49619; [1]
  MIC: 0.5 µg/mL
SPN 49619; substance alone, read-out: MIC
  MIC: 0.5 µg/mL
SAU 29213; antibiotic alone, SAU 29213, read-out: MIC ATB alone
  MIC: 8 µg/mL
SAU 29213; substance alone, SAU 29213 (MSSA 29213), read-out: MIC
  MIC: 8 µg/mL
